Measured values reported in PubChem BioAssay AID248 (DTP/NCI, 2004).
Several values for one entry are separate records, joined by “and”; a condition that tells them apart may be missing. Identical values can stand only once. Toxic doses and inconclusive results are not listed. Rule as the data show it: active = T/C of 150% or more; inactive = T/C below 125%.

Test system: L1210 leukemia ip in BDF1 mice, survival T/C
Assay: NCI In Vivo Anticancer Drug Screen. Data for tumor model L1210 Leukemia (intraperitoneal) in B6D2F1 (BDF1) mice
Conditions: endpoint: mean survival time, higher = longer survival
Outline: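 Read-out is survival time, reported as the treated-group measurement over the vehicle-control measurement.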

[1] = dose: 100.0 mg/kg/injection, schedule: Q01DX009 (ip), vehicle: saline
[2] = dose: 100.0 mg/kg/injection, schedule: Q04DX002 (ip), vehicle: saline
[3] = dose: 100.0 mg/kg/injection, schedule: Q04DX003 (ip), vehicle: saline
[4] = dose: 200.0 mg/kg/injection, schedule: Q01DX009 (ip), vehicle: saline
[5] = dose: 200.0 mg/kg/injection, schedule: Q04DX002 (ip), vehicle: saline
[6] = dose: 200.0 mg/kg/injection, schedule: Q04DX003 (ip), vehicle: saline
[7] = dose: 400.0 mg/kg/injection, schedule: Q04DX002 (ip), vehicle: saline
[8] = dose: 100.0 mg/kg/injection, schedule: Q01DX009 (ip), vehicle: Klucel (hydroxypropylcellulose) (HPC)
[9] = dose: 200.0 mg/kg/injection, schedule: Q01DX009 (ip), vehicle: Klucel (hydroxypropylcellulose) (HPC)
[10] = dose: 100.0 mg/kg/injection, schedule: Q04DX003 (ip), vehicle: Klucel (hydroxypropylcellulose) (HPC)
[11] = dose: 200.0 mg/kg/injection, schedule: Q04DX003 (ip), vehicle: Klucel (hydroxypropylcellulose) (HPC)
[12] = dose: 100.0 mg/kg/injection, schedule: Q01DX001 (ip), vehicle: saline with Tween-80
[13] = dose: 100.0 mg/kg/injection, schedule: Q04DX003 (ip), vehicle: saline with Tween-80
[14] = dose: 200.0 mg/kg/injection, schedule: Q01DX001 (ip), vehicle: saline with Tween-80
[15] = dose: 200.0 mg/kg/injection, schedule: Q04DX003 (ip), vehicle: saline with Tween-80
[16] = dose: 400.0 mg/kg/injection, schedule: Q04DX003 (ip), vehicle: saline with Tween-80
[17] = dose: 25.0 mg/kg/injection, schedule: Q01DX009 (ip), vehicle: saline with Tween-80
[18] = dose: 50.0 mg/kg/injection, schedule: Q01DX009 (ip), vehicle: saline with Tween-80
[19] = dose: 100.0 mg/kg/injection, schedule: Q04DX002 (ip), vehicle: saline with Tween-80
[20] = dose: 200.0 mg/kg/injection, schedule: Q04DX002 (ip), vehicle: saline with Tween-80
[21] = dose: 400.0 mg/kg/injection, schedule: Q04DX002 (ip), vehicle: saline with Tween-80
[22] = dose: 400.0 mg/kg/injection, schedule: Q04DX003 (ip), vehicle: saline
[23] = dose: 100.0 mg/kg/injection, schedule: Q01DX009 (ip), vehicle: saline with Tween-80
[24] = dose: 200.0 mg/kg/injection, schedule: Q01DX009 (ip), vehicle: saline with Tween-80
[25] = dose: 50.0 mg/kg/injection, schedule: Q01DX009 (ip), vehicle: Klucel (hydroxypropylcellulose) (HPC)

Measured: T/C

COC(=O)c1ccccc1Cn1ccnc1
inactive: dose: 100.0 mg/kg/injection, schedule: Q01DX001 (ip), vehicle: saline 108 % of control | [1] 102 % of control and 92 % of control | [2] 96 % of control and 103 % of control | [3] 115 % of control | dose: 200.0 mg/kg/injection, schedule: Q01DX001 (ip), vehicle: saline 101 % of control | [4] 94 % of control and 97 % of control | [5] 103 % of control and 105 % of control | [6] 101 % of control | dose: 400.0 mg/kg/injection, schedule: Q01DX001 (ip), vehicle: saline 97 % of control | [7] 100 % of control

NC1CCCCC1I (stereo not given)
inactive: dose: 75.0 mg/kg/injection, schedule: Q01DX001 (ip), vehicle: acetone 94 % of control | dose: 150.0 mg/kg/injection, schedule: Q01DX001 (ip), vehicle: acetone 104 % of control

O=C1CC(Sc2ccccc2)C(=O)N1c1ccccc1 (stereo not given)
inactive: [8] 104 % of control | [9] 100 % of control | dose: 400.0 mg/kg/injection, schedule: Q01DX009 (ip), vehicle: Klucel (hydroxypropylcellulose) (HPC) 107 % of control

CN(Cc1ccccc1)c1cc(=O)[nH]c(=O)[nH]1
inactive: [10] 102 % of control | [11] 96 % of control | dose: 400.0 mg/kg/injection, schedule: Q04DX003 (ip), vehicle: Klucel (hydroxypropylcellulose) (HPC) 100 % of control

O=C(Nc1cccc(Cl)c1)SCCSC(=O)Nc1cccc(Cl)c1
inactive: [12] 88 % of control | [13] 98 % of control | [14] 93 % of control | [15] 87 % of control | [16] 88 % of control

O=C(CCCCCCCC(=O)Nc1cc(C2=NCCN2)cc(C2=NCCN2)c1)Nc1cc(C2=NCCN2)cc(C2=NCCN2)c1
inactive: dose: 12.0 mg/kg/injection, schedule: Q01DX Z (ip), vehicle: carboxymethylcellulose (CMC) 105 % of control

CC1(C)N=C(N)N=C(N)N1c1ccc(OCCCc2ccccc2)c(N)c1
inactive: dose: 25.0 mg/kg/injection, schedule: Q04DX003 (ip), vehicle: saline with Tween-80 100 % of control | dose: 50.0 mg/kg/injection, schedule: Q04DX003 (ip), vehicle: saline with Tween-80 96 % of control

O=C(Nc1ccc(F)c([N+](=O)[O-])c1)Oc1cccnc1
inactive: [17] 97 % of control and 99 % of control | [18] 95 % of control and 96 % of control | [12] 108 % of control | [19] 95 % of control and 100 % of control | [13] 97 % of control | [14] 109 % of control | [20] 104 % of control and 109 % of control | [15] 100 % of control | [21] 102 % of control and 103 % of control

O=C(/C=C/c1cccc([N+](=O)[O-])c1)Nc1cccnc1
inactive: dose: 100.0 mg/kg/injection, schedule: Q01DX009 (ip), vehicle: gum acacia 90 % of control | dose: 200.0 mg/kg/injection, schedule: Q01DX009 (ip), vehicle: gum acacia 96 % of control | dose: 400.0 mg/kg/injection, schedule: Q01DX009 (ip), vehicle: gum acacia 94 % of control

O=[N+]([O-])c1ccc(Cl)c(O)c1
inactive: dose: 25.0 mg/kg/injection, schedule: Q01DX009 (ip), vehicle: carboxymethylcellulose (CMC) 108 % of control | dose: 50.0 mg/kg/injection, schedule: Q01DX009 (ip), vehicle: carboxymethylcellulose (CMC) 106 % of control | dose: 100.0 mg/kg/injection, schedule: Q01DX009 (ip), vehicle: carboxymethylcellulose (CMC) 97 % of control

CC(=O)Nc1ccc(/C=N\N=C\c2ccc(NC(C)=O)cc2)cc1
inactive: [1] 88 % of control | [3] 100 % of control | [4] 86 % of control | [6] 105 % of control | [22] 100 % of control

CCCCCCCCCCN=C(N)CSSCC(N)=NCCCCCCCCCC
inactive: dose: 0.39 mg/kg/injection, schedule: Q04DX002 (ip), vehicle: saline with Tween-80 95 % of control | dose: 0.78 mg/kg/injection, schedule: Q04DX002 (ip), vehicle: saline with Tween-80 100 % of control | dose: 1.56 mg/kg/injection, schedule: Q04DX002 (ip), vehicle: saline with Tween-80 105 % of control

CC1(C)CCCC2(C)C1CC(O)C1(CO1)C2CCC(C)(O)C1CO1 (stereo not given)
inactive: dose: 25.0 mg/kg/injection, schedule: Q01DX009 (ip), vehicle: DMSO 92 % of control | dose: 25.0 mg/kg/injection, schedule: Q04DX003 (ip), vehicle: DMSO 88 % of control | dose: 50.0 mg/kg/injection, schedule: Q01DX009 (ip), vehicle: DMSO 96 % of control | dose: 50.0 mg/kg/injection, schedule: Q04DX003 (ip), vehicle: DMSO 93 % of control | dose: 100.0 mg/kg/injection, schedule: Q04DX003 (ip), vehicle: DMSO 97 % of control and 92 % of control

CC(=NC1CCCCC1)Nc1ccc(NC(=O)c2ccc(C(=O)Nc3ccc(NC(C)=NC4CCCCC4)cc3)cc2)cc1
inactive: dose: 15.0 mg/kg/injection, schedule: Q01DX Z (ip), vehicle: carboxymethylcellulose (CMC) 92 % of control | dose: 30.0 mg/kg/injection, schedule: Q01DX Z (ip), vehicle: carboxymethylcellulose (CMC) 93 % of control | dose: 60.0 mg/kg/injection, schedule: Q01DX Z (ip), vehicle: carboxymethylcellulose (CMC) 96 % of control

OC(C=S)CS (stereo not given)
inactive: [19] 95 % of control | [20] 92 % of control | [21] 95 % of control

CN(C(=O)CCC(=O)N(C)c1ccccc1)c1ccccc1
inactive: [23] 97 % of control | [24] 87 % of control

CC(=O)CCC(C#N)c1ccccc1 (stereo not given)
inactive: dose: 25.0 mg/kg/injection, schedule: Q04DX002 (ip), vehicle: saline 104 % of control | dose: 50.0 mg/kg/injection, schedule: Q04DX002 (ip), vehicle: saline 107 % of control | [2] 93 % of control and 111 % of control

CC(C)=CC(=O)OC1C2C(C)C(=O)OC2C(O)C(C)C2C=CC(=O)C21C (stereo not given)
inactive: dose: 6.25 mg/kg/injection, schedule: Q01DX009 (ip), vehicle: saline with Tween-80 95 % of control | dose: 12.5 mg/kg/injection, schedule: Q01DX009 (ip), vehicle: saline with Tween-80 97 % of control | dose: 25.0 mg/kg/injection, schedule: Q01DX009 (ip), vehicle: Klucel (hydroxypropylcellulose) (HPC) 97 % of control | [17] 103 % of control | dose: 25.0 mg/kg/injection, schedule: Q01DX009 (ip), vehicle: saline 93 % of control | [25] 94 % of control | [18] 103 % of control | dose: 50.0 mg/kg/injection, schedule: Q01DX009 (ip), vehicle: saline 100 % of control

Cc1c2oc3c(C)ccc(C(=O)NCCN4CCCCC4)c3nc-2c(C(=O)NCCN2CCCCC2)c(N)c1=O
inactive: [2] 103 % of control | [5] 109 % of control

COc1ccc(C(=O)C[N+](=O)[O-])cc1
inactive: [23] 94 % of control | [13] 106 % of control | [24] 99 % of control | [15] 103 % of control | [16] 101 % of control

O=[N+]([O-])c1ccc(/C=N/Nc2ccnc3cc(Cl)ccc23)s1
inactive: [3] 96 % of control | [6] 96 % of control | [22] 96 % of control

CC(=O)OC1C=CCC2C(=O)c3c(c(O)c4ccccc4c3O)C(=O)C12 (stereo not given)
inactive: [23] 95 % of control | [13] 95 % of control | [24] 105 % of control | [15] 95 % of control | dose: 400.0 mg/kg/injection, schedule: Q01DX009 (ip), vehicle: saline with Tween-80 100 % of control | [16] 90 % of control

CC(C)(C)CC(C)(C)c1ccc(OCCOS(=O)(=O)c2cccc([N+](=O)[O-])c2)cc1
inactive: [13] 94 % of control | [15] 90 % of control

COc1cccc2c(=O)c(C(=O)O)c[nH]c12
inactive: [25] 101 % of control | dose: 50.0 mg/kg/injection, schedule: Q04DX003 (ip), vehicle: Klucel (hydroxypropylcellulose) (HPC) 94 % of control | [8] 106 % of control | [2] 96 % of control | [10] 91 % of control | [9] 107 % of control | [5] 96 % of control | [11] 94 % of control | [7] 100 % of control
